# Experimental data taken from US11464780B2, “Pyrazolopyrimidine derivative and use thereof” (Simcere Pharmaceutical Co. Ltd., priority 2018, dated 2022).
# Where two headings read alike, the source gives them in different places.
# Tests used:
# [1] = target: T1, Ba/F3 SLC34A2-ROS1-WT stably transfected cell line (Homo sapiens, UniProt P08922); test: Cell proliferation inhibition (CellTiter-Glo); type: cell-based; conditions: 72 hours, read-out: The half maximal inhibitory concentration IC50 against cells, Ba/F3 SLC34A2-ROS1-WT
# T1 construct: fused on or other part: O95436 (Sodium-dependent phosphate transport protein 2B)
# Ros-G2032R = target: T2, Ros-G2032R (Homo sapiens, UniProt P08922, G2032R); test: Kinase inhibitory activity (33P-ATP filter binding, Reaction Biology Corp.); type: biochemical; conditions: read-out: The half maximal inhibitory concentration IC50 on the kinases, Ros-G2032R
# T2 construct: purchased Reaction Biology Corp. (contract assay)
# In short: (§1)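 Radioactivity was read by filter binding. Activity was expressed as remaining activity relative to DMSO control, and IC50 came from dose-effect curve fitting.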
# TrkA-G595R = target: T3, TrkA-G595R (Homo sapiens, UniProt P04629, G595R); test: as above; type: biochemical; conditions: read-out: The half maximal inhibitory concentration IC50 on the kinases, TrkA-G595R
# T3 construct: purchased Reaction Biology Corp. (contract assay)
# In short: as §1
# TrkA = target: T4, TrkA (Homo sapiens, UniProt P04629); test: as above; type: biochemical; conditions: read-out: The half maximal inhibitory concentration IC50 on the kinases, TrkA
# T4 construct: purchased Reaction Biology Corp. (contract assay)
# In short: as §1
# Ros1 = target: T5, Ros1 (Homo sapiens, UniProt P08922); test: as above; type: biochemical; conditions: read-out: The half maximal inhibitory concentration IC50 on the kinases, Ros1
# T5 construct: purchased Reaction Biology Corp. (contract assay)
# In short: as §1
# TrkA-G667C = target: T6, TrkA-G667C (Homo sapiens, UniProt P04629, G667C); test: as above; type: biochemical; conditions: read-out: The half maximal inhibitory concentration IC50 on the kinases, TrkA-G667C
# T6 construct: purchased Reaction Biology Corp. (contract assay)
# In short: as §1
# TrkC = target: T7, TrkC (Homo sapiens, UniProt Q16288); test: as above; type: biochemical; conditions: read-out: The half maximal inhibitory concentration IC50 on the kinases, TrkC
# T7 construct: purchased Reaction Biology Corp. (contract assay)
# In short: as §1
# [2] = target: T8, Ba/F3 LMNA-NTRK1-G595R stably transfected cell line (Homo sapiens, UniProt P04629, G595R, cells depend on it); test: Cell proliferation inhibition (CellTiter-Glo); type: cell-based; conditions: 72 hours, read-out: The half maximal inhibitory concentration IC50 against cells, Ba/F3 LMNA-NTRK1-G595R
# T8 construct: fused on or other part: P02545 (Prelamin-A/C)
# [3] = target: T9, Ba/F3 SLC34A2-ROS1-G2032R stably transfected cell line (Homo sapiens, UniProt P08922, G2032R, cells depend on it); test: Cell proliferation inhibition (CellTiter-Glo); type: cell-based; conditions: 72 hours, read-out: The half maximal inhibitory concentration IC50 against cells, Ba/F3 SLC34A2-ROS1-G2032R
# T9 construct: fused on or other part: O95436 (Sodium-dependent phosphate transport protein 2B)
# [4] = target: T10, Ba/F3 LMNA-NTRK1-F589L stably transfected cell line (Homo sapiens, UniProt P04629, F589L, cells depend on it); test: Cell proliferation inhibition (CellTiter-Glo); type: cell-based; conditions: 72 hours, read-out: The half maximal inhibitory concentration IC50 against cells, Ba/F3 LMNA-NTRK1-F589L
# T10 construct: fused on or other part: P02545 (Prelamin-A/C)
# [5] = target: T11, Ba/F3 LMNA-NTRK1-WT stably transfected cell line (Homo sapiens, UniProt P04629); test: Cell proliferation inhibition (CellTiter-Glo); type: cell-based; conditions: 72 hours, read-out: The half maximal inhibitory concentration IC50 against cells, Ba/F3 LMNA-NTRK1-WT
# T11 construct: fused on or other part: P02545 (Prelamin-A/C)
# In short: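 Stably transfected Ba/F3 cells (≥90% viable) were seeded overnight, then exposed in triplicate to a 9-point, 3-fold series (highest 10 μM, prepared as 10× solutions) for 72 h at 37 °C, 5% CO2. Viability was read by ATP luminescence, and IC50 came from a nonlinear sigmoidal fit.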
# [6] = In vivo pharmacokinetic test in mice; set-up: species or system male CD-1 mice; conditions: for Cmax: read-out: Peak concentration Cmax; for AUC(0-t): read-out: Area under the curve AUC0-last
# In short: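 Male CD-1 mice, 7-9 weeks, given a single IV (3 mg/kg) or intragastric dose in 5% DMSO/10% solutol/85% water. Plasma drug levels measured by LC/MS/MS at multiple time points to derive PK parameters.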
# [7] = male, CD-1, mouse, plasma, PO dose of 10 mL/kg
# T1 sequence (P08922 whole entry, stated change not applied, the tested form may be a part): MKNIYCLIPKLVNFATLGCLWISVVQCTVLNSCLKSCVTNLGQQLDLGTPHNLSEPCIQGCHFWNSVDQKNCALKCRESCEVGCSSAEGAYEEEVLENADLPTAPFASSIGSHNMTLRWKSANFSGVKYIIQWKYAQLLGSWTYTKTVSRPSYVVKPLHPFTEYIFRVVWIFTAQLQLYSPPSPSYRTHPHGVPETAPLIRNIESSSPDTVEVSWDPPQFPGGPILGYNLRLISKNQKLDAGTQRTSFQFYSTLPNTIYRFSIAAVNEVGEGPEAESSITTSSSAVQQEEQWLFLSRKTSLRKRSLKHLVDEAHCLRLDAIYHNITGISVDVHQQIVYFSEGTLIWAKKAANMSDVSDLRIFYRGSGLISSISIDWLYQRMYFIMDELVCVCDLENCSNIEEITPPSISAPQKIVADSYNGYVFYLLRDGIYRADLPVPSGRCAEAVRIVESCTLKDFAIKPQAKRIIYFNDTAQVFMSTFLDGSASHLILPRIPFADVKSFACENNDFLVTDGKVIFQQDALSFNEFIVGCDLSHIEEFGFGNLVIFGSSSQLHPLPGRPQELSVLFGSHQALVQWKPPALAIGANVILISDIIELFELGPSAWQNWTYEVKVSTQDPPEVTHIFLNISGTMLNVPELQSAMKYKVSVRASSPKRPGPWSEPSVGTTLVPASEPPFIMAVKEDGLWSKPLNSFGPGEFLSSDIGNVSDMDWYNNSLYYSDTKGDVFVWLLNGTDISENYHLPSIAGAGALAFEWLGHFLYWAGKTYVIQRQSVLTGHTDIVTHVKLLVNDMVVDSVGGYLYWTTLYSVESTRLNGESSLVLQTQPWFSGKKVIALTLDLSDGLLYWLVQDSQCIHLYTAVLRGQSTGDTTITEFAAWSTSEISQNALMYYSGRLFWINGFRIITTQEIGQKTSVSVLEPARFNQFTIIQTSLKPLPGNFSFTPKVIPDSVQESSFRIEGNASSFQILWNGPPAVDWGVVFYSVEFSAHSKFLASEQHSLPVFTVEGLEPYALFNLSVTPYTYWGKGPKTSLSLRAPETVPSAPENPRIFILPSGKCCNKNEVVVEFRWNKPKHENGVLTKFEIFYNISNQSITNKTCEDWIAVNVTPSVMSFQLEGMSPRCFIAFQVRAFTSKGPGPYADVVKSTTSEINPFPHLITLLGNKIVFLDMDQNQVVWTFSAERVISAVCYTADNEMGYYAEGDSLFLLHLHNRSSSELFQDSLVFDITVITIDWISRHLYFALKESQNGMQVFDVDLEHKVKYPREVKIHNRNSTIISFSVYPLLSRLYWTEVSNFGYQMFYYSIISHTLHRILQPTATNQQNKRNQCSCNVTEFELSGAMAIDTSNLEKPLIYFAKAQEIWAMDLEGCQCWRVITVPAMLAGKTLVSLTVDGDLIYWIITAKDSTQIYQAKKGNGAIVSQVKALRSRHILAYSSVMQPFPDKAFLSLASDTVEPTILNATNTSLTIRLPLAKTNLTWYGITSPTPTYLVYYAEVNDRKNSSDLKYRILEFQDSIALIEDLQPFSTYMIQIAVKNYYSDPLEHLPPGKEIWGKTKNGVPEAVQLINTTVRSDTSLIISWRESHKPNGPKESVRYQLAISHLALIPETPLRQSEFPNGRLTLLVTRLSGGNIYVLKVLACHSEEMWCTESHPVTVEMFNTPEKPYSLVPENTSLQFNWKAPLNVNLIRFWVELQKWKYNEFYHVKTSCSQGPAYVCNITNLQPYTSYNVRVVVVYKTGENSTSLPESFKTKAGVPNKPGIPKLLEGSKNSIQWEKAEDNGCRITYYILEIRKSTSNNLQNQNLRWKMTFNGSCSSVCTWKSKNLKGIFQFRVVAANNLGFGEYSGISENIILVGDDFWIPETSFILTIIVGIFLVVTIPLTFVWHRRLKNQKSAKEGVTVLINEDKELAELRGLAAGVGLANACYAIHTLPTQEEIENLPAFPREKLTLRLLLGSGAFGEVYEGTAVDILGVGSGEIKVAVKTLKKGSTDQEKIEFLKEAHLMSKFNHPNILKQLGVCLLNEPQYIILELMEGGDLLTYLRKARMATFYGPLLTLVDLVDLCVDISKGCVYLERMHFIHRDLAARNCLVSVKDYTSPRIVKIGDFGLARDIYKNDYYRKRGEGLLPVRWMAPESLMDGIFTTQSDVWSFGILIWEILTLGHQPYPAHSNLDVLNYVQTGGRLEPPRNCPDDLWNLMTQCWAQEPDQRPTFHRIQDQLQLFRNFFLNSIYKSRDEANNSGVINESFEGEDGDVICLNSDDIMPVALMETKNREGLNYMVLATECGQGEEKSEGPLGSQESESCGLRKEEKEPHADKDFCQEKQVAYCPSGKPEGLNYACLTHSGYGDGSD
# T5 sequence (P08922 28-2347): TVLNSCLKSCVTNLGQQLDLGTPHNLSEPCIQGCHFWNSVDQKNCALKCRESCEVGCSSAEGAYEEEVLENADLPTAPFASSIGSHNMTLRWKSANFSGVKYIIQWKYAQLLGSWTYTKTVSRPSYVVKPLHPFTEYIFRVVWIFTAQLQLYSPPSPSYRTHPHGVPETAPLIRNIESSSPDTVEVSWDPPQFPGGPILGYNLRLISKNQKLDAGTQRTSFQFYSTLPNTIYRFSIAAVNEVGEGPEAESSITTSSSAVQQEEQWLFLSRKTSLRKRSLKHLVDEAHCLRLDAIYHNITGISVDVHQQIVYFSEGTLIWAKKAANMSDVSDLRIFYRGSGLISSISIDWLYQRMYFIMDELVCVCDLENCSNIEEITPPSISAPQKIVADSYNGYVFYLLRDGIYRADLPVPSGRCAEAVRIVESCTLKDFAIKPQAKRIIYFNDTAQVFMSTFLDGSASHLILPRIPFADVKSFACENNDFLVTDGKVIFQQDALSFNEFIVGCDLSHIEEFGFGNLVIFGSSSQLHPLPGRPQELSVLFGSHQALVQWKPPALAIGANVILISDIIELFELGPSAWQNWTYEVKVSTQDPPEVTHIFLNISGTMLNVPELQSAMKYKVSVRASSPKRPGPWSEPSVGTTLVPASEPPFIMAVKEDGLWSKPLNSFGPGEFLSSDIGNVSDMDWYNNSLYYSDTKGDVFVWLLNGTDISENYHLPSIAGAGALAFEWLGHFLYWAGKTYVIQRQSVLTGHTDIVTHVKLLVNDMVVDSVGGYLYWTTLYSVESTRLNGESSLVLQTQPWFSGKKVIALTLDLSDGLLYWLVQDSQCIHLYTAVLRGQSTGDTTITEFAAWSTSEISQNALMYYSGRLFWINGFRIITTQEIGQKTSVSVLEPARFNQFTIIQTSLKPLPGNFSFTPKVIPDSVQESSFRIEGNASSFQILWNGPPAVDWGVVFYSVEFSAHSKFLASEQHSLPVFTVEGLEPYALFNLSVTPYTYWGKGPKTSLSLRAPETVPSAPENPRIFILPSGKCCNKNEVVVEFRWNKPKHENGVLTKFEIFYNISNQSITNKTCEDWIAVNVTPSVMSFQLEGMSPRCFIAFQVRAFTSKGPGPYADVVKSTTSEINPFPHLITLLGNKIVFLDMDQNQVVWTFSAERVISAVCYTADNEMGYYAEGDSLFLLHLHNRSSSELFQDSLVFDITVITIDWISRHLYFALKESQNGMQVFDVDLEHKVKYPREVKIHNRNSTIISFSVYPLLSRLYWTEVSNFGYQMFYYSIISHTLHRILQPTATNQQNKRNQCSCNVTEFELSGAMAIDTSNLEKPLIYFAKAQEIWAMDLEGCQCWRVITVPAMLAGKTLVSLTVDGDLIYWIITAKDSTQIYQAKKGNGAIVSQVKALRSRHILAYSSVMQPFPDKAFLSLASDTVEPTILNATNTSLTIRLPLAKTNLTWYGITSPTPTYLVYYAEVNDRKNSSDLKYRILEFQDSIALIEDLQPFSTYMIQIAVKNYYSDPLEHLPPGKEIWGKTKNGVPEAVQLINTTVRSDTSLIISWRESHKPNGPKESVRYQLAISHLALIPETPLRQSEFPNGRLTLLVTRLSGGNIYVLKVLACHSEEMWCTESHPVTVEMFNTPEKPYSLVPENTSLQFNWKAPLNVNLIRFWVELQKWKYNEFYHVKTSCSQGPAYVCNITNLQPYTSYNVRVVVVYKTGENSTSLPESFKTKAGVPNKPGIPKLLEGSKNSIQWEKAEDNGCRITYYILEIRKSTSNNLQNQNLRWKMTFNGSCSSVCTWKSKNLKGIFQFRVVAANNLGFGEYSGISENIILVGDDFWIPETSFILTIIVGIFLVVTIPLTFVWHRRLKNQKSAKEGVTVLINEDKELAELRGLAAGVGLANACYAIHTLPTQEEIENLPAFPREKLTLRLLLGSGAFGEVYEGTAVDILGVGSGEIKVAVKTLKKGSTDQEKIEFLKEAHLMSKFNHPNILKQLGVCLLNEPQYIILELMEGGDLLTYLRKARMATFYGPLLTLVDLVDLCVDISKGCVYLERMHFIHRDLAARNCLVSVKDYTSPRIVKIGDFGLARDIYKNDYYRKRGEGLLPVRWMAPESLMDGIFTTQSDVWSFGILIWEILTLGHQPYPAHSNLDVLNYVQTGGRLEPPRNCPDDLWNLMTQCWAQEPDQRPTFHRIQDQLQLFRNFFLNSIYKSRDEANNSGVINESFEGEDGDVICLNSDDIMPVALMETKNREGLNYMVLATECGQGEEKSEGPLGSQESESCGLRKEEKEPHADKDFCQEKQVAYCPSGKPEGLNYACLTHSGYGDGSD
# T9 sequence (P08922 whole entry G2032R, the tested form may be a part): as the sequence (P08922 whole entry, stated change not applied, the tested form may be a part) above, with G2032R counted along it
# T2 sequence (P08922 28-2347 G2032R): as the sequence (P08922 28-2347) above, with G2005R counted along it
GI50 [1],IC50 (Ros-G2032R),IC50 (TrkA-G595R),IC50 (TrkA),IC50 (Ros1),IC50 (TrkA-G667C),IC50 (TrkC),GI50 [2],GI50 [3],GI50 [4],GI50 [5],Apparent clearance Cl ([6]; IV dose of 3 mg/kg),Structure (SMILES),further results
2.53 nM,0.4 nM,3.6 nM,2.07 nM,0.14 nM,7 nM,0.14 nM,6.2 nM,16.1 nM,0.78 nM,1.26 nM,7.2 mL/min/kg,O=C1NC2(CC2)COc2ncc(F)cc2[C@H]2CCON2c2ccn3ncc1c3n2 [WX002A],Apparent volume of distribution Vd ([6]; IV dose of 3 mg/kg): 0.49 L/kg; Area under the curve AUC0-last ([6]; IV dose of 3 mg/kg): 17.502 µM·h; Half life T1/2 ([6]; IV dose of 3 mg/kg): 45 min; Area under the curve AUC0-last ([6]; PO dose of 10 mL/kg): 29.787 µM·h; Time of peak concentration Tmax ([6]; PO dose of 10 mL/kg): 30 min; Bioavailability F % ([6]; PO dose of 10 mL/kg vs IV 3 mg/kg): 51%; Cmax ([6]; PO dose of 10 mL/kg): 9.14 µM
5.45 nM,0.52 nM,2.31 nM,1.61 nM,0.16 nM,6.49 nM,0.05 nM,3.92 nM,38.5 nM,1.59 nM,1.6 nM,6.7 mL/min/kg,O=C1N[C@@H]2COC[C@@H]2Oc2ncc(F)cc2[C@H]2CCON2c2ccn3ncc1c3n2 [WX008A],"Vd ([6]; male, CD-1, mouse, plasma, IV dose of 3 mg/kg, read-out: Apparent volume of distribution Vd): 0.62 L/kg; AUC(0-t) ([6]; male, CD-1, mouse, plasma, IV dose of 3 mg/kg): 18.2 µM·h; half-life ([6]; male, CD-1, mouse, plasma, IV dose of 3 mg/kg, read-out: Half life T1/2 (converted)): 68.4 min; bioavailability ([6]; male, CD-1, mouse, plasma, PO dose of 10 mL/kg vs IV 3 mg/kg, read-out: Bioavailability F %): 65%; AUC(0-t) [6, 7]: 39.6 µM·h; Cmax [6, 7]: 12.2 µM; Tmax ([6]; male, CD-1, mouse, plasma, PO dose of 10 mL/kg, read-out: Time of peak concentration Tmax): 15 min"
